Values after ≈ are worked out from the molar mass of the structure shown.
What was measured:
[1] = system: S. aureus SA-K2378 (norA ++); experiment: Checkerboard assay EPI/CPX against SA-K2378; format: cell-based, Staphylococcus aureus
Method: Conversely, interesting results were obtained against SA‐K2378, which overexpresses the norA gene (Table 2). […] This corroborates the hypothesis that their activity is strictly related to NorA EP inhibition.
Checkerboard assays were carried out using SA‐K1902 and SA‐K2378 strains according to standard procedures.

[2] = system: S. aureus SA-1199 (wild type); experiment: Synergistic assay with CPX against wild-type SA-1199; format: cell-based, Staphylococcus aureus; conditions: EPI at 3.13 µg/mL with CPX
Excerpt: This finding aligns with their mechanism of action, which involves the inhibition of NorA, which is only basally expressed in the wild‐type SA‐1199 strain.

[3] = MTT cytotoxicity assay on A549; format: cell-based; conditions: human, A549 cells; for viability at 72 h, 12.5 µg/mL: A549, 12.5 μg/mL; for viability at 72 h, 12.5 µg/mL / viability at 72 h, 25 µg/mL / viability at 72 h, 50 µg/mL / viability at 72 h, 100 µg/mL: read-out: Cytotoxicity (% cell viability); for viability at 72 h, 25 µg/mL: A549, 25 μg/mL; for viability at 72 h, 50 µg/mL: A549, 50 μg/mL; for viability at 72 h, 100 µg/mL: A549, 100 μg/mL
Method: The MTT assay was performed on two human ATCC cell lines, that is, […] (CCL‐185) and MCF7 (HTB‐22), to test the potential cytotoxic effect of the compounds, after 72 h exposure, as previously described. Each compound was tested at concentrations ranging from 12.5 to 100 μg/mL. Untreated cells were considered as controls. The percentage of viable cells was calculated as follows: % Cell viability = 100 × treated well absorbance/untreated control well absorbance. All assays were performed once in technical quadruplicate.

Row | Compound | CPX MIC ([1]; EPI at 0.2 µg/mL) [mg/L] | N° CPX MIC reduction ([1]; EPI at 0.2 µg/mL) | CPX MIC ([1]; EPI at 0.4 µg/mL) [mg/L] | N° CPX MIC reduction ([1]; EPI at 0.4 µg/mL) | CPX MIC ([1]; EPI at 0.8 µg/mL) [mg/L] | N° CPX MIC reduction ([1]; EPI at 0.8 µg/mL) | CPX MIC ([1]; EPI at 1.6 µg/mL) [mg/L] | N° CPX MIC reduction ([1]; EPI at 1.6 µg/mL) | CPX MIC ([1]; EPI at 3.13 µg/mL) [mg/L] | N° CPX MIC reduction ([1]; EPI at 3.13 µg/mL) | synergistic effect with CPX [2] | viability at 72 h, 12.5 µg/mL [3] [%] | viability at 72 h, 25 µg/mL [3] [%] | viability at 72 h, 50 µg/mL [3] [%] | viability at 72 h, 100 µg/mL [3] [%] | CC50 at 72 h ([3]; A549, MTT) [mg/L] | CPX MIC ([1]; EPI at 6.25 µg/mL) [mg/L] | N° CPX MIC reduction ([1]; EPI at 6.25 µg/mL)
1 | CN1c2c(-c3ccc(Cl)cc3)n[nH]c2-c2ccccc2S1(=O)=O [Compound 10, 3‐(4‐Chlorophenyl)‐4‐methyl‐1,4‐dihydropyrazolo[4,3‐c][1,2]benzothiazine 5,5‐dioxide] | 0.6 | 2 | 0.6 | 2 | 0.3 | 4 | 0.16 | 8 | 0.08 | 16 | did not show any synergistic effect | 97 ± 2 | 45 ± 3 | 7 | 7 ± 2 | ~25 (≈ 72.3 µM) |  | 
2 | O=S1(=O)Nc2c(-c3ccc(Cl)cc3)nn(-c3ccccc3)c2-c2ccccc21 [Compound 3] | 0.6 | 2 | 0.6 | 2 | 0.3 | 4 | 0.16 | 8 | 0.16 | 8 | did not show any synergistic effect | 94 ± 24 | 99 ± 20 | 101 ± 24 | 34 ± 10 |  | 0.08 | 16

From paper PMC12089509, “NorA Efflux Pump Inhibitors: Expanding SAR Knowledge of Pyrazolo[4,3‐c][1,2]benzothiazine 5,5‐Dioxide Derivatives” (Archiv Der Pharmazie, 2025)
